Assay results from ChEMBL document CHEMBL4425158, “Synthesis, structure-activity relationships and biological evaluation of 4,5,6,7-tetrahydropyrazolopyrazines as metabotropic glutamate receptor 5 negative allosteric modulators” (Bioorg Med Chem Lett, 2016).
In brackets after ≈: the same amount, converted by molar mass.

How the values were obtained:
[1] = target: Metabotropic glutamate receptor 5 (Homo sapiens, UniProt P41594); test: Negative allosteric modulation of human recombinant mGluR5 expressed in HEK293 cells assessed as L-glutamate-induced intracellular calcium mobilization incubated for 20 mins before L-glutamate addition; assay type: functional, cell-based
[2] = Aqueous solubility of the compound at pH 7.4; assay type: physicochemical
[3] = Aqueous solubility of the compound at pH 1.2; assay type: physicochemical

Chain of Metabotropic glutamate receptor 5 (P41594 whole entry): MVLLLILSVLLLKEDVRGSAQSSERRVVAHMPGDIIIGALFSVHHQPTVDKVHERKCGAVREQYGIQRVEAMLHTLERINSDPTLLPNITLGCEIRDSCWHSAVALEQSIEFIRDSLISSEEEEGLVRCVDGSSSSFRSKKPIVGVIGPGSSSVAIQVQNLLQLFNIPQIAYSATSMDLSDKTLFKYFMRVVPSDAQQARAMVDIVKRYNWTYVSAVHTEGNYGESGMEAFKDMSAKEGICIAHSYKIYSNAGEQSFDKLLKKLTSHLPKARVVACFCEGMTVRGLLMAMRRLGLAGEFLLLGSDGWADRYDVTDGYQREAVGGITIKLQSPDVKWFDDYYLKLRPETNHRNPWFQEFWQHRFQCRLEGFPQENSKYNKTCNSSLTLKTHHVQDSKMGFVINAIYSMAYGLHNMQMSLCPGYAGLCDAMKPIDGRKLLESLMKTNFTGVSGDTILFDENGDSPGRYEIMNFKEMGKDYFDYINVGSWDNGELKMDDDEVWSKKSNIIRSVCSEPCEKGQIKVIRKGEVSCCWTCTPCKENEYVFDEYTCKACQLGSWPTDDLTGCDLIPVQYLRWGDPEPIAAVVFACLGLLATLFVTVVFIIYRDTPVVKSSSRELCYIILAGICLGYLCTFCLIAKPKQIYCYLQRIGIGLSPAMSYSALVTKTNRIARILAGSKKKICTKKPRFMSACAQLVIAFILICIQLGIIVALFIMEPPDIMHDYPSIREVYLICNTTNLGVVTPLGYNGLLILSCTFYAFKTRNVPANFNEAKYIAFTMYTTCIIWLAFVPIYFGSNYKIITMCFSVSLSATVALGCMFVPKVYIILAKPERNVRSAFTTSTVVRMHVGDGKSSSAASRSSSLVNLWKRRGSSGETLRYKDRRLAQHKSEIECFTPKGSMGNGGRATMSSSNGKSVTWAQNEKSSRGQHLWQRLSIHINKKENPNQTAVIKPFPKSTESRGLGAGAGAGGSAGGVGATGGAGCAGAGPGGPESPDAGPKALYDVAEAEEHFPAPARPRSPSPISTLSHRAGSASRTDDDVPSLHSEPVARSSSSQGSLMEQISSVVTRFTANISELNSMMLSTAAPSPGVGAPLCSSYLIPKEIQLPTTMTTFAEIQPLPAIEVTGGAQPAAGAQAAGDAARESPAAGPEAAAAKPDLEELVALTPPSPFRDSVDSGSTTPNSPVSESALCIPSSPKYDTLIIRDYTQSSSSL

Row | IC50 [1] [nM] | solubility [2] [µg/mL] | solubility [3] [µg/mL] | SMILES
1 | 270 |  |  | O=C(c1cc(Cl)cc(Cl)c1)N1CCn2nc(-c3ccccn3)cc2C1
2 | 2480 |  |  | O=C(c1ccccc1Cl)N1CCn2nc(-c3ccccn3)cc2C1
3 | 150 |  |  | O=C(c1cccc(Cl)c1)N1CCn2nc(-c3ccc(F)cn3)cc2C1
4 | 9470 |  |  | O=C(c1ccc(Cl)cc1)N1CCn2nc(-c3ccccn3)cc2C1
5 | > 10000 |  |  | N#Cc1cccc(C(=O)N2CCn3nc(-c4ccc(F)cn4)cc3C2)c1
6 | 164 |  |  | O=C(c1ccccc1)N1CCn2nc(-c3ccc(F)cn3)cc2C1
7 | 383 |  |  | O=C(c1cccc(C(F)(F)F)c1)N1CCn2nc(-c3ccc(F)cn3)cc2C1
8 | 127 | 2 (≈ 6.59 µM) | 4 (≈ 13.2 µM) | O=C(c1ccccc1)N1CCn2nc(-c3ccccc3)cc2C1
9 | 244 |  |  | Cc1ccc(-c2cc3n(n2)CCN(C(=O)c2ccccc2)C3)nc1
10 | 451 |  |  | Cc1ccnc(-c2cc3n(n2)CCN(C(=O)c2ccccc2)C3)c1
11 | 176 |  |  | O=C(c1cccc(Cl)c1)N1CCn2nc(-c3ccccn3)cc2C1
12 | 568 |  |  | Cc1cccc(-c2cc3n(n2)CCN(C(=O)c2ccccc2)C3)n1
